Columns and labels:
Rat Hepatic V1 Receptors = target: T1, Rat Hepatic V1 Receptors (Rattus norvegicus, UniProt P30560); experiment: Binding Assay to Rat Hepatic V1 Receptors; conditions: rat liver membranes; read-out: V1 IC50
T1 construct: Rat liver plasma membranes expressing the vasopressin V1 receptor subtypes; from tissue; host or cells: rat liver plasma membranes

Vasopressin V1 = Vasopressin V1 Antagonist Activity in Conscious Rats (vasopressin vasopressor response); assay type: in vivo, rat; parameters: Average Change: unit not given here; conditions: for % Inhibition / Average Change: SHR
In short: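 Conscious rats are restrained supine, and under local 2% procaine a PE 10/20 cannula is passed through the ventral caudal tail artery into the lower abdominal aorta. The caudal vein is cannulated for intravenous dosing. Blood pressure is recorded with a Statham P23Db transducer, and vasopressin injections are repeated after compound dosing. Percent antagonism is calculated against the pre-drug vasopressor response taken as 100%.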

Vasopressin V2 = Vasopressin V2 Antagonist Activity in Conscious Hydrated Rats; assay type: in vivo, rat; conditions: AVP 0.4 μg/kg i.p.
In short: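 Four-hour urine output, osmolality and electrolytes (Na+, K+, Cl−) recorded in water-loaded rats (30 mL/kg deionized water orally) given AVP i.p. at 0.4 μg/kg. Test compounds were given orally at 0.1–100 mg/kg 1 h before AVP; 2–4 rats per compound.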

[1] = target: T2, Rat Kidney Medullary V2 Receptors (Rattus norvegicus, UniProt Q00788); experiment: Binding Assay to Rat Kidney Medullary V2 Receptors; conditions: rat kidney medulla membranes; read-out: V2 IC50
T2 construct: Medullary tissues from rat kidneys are dissected out; from tissue; host or cells: rat kidney medulla membranes
In short: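 Membranes were prepared from rat kidney medulla and stored in 50.0 mM Tris-HCl pH 7.4 with 0.2% BSA and 0.1 mM PMSF. Radioligand competition ran 120 min at bench temperature, with 1.0 μM unlabeled ligand defining nonspecific binding. Compounds were added in 50% DMSO; filtration, tritium scintillation counting, IC50 from competition analysis.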

[2] = 10 mg/kg i.v., VAS 0.01 i.u./kg, 30 min
[3] = 10 mg/kg i.v., VAS 0.01 i.u./kg, 60 min
[4] = 10 mg/kg i.v., VAS 0.01 i.u./kg, 90 min
[5] = 10 mg/kg i.v., VAS 0.01 i.u./kg, 120 min
[6] = 10 mg/kg i.v., VAS 0.01 i.u./kg, 180 min
[7] = 10 mg/kg i.v., VAS 0.01 i.u./kg, 240 min
[8] = 10 mg/kg i.v., VAS 0.01 i.u./kg, 300 min
[9] = 10 mg/kg i.v., VAS 0.02 i.u./kg, 30 min
[10] = 10 mg/kg i.v., VAS 0.02 i.u./kg, 60 min
[11] = 10 mg/kg i.v., VAS 0.02 i.u./kg, 90 min
[12] = 10 mg/kg i.v., VAS 0.02 i.u./kg, 120 min
[13] = 10 mg/kg i.v., VAS 0.02 i.u./kg, 180 min
[14] = 10 mg/kg i.v., VAS 0.02 i.u./kg, 240 min
[15] = 10 mg/kg i.v., VAS 0.02 i.u./kg, 300 min

T2 sequence (Q00788 whole entry): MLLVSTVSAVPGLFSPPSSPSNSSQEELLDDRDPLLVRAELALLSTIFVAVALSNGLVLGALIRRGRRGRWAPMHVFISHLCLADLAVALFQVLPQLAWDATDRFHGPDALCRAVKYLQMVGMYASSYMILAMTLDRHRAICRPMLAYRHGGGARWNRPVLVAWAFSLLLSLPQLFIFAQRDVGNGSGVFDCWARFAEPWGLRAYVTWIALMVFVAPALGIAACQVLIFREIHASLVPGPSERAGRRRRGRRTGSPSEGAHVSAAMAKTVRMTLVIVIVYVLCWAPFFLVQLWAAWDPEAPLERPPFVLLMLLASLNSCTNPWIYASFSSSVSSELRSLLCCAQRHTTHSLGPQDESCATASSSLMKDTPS
T1 sequence (P30560 whole entry): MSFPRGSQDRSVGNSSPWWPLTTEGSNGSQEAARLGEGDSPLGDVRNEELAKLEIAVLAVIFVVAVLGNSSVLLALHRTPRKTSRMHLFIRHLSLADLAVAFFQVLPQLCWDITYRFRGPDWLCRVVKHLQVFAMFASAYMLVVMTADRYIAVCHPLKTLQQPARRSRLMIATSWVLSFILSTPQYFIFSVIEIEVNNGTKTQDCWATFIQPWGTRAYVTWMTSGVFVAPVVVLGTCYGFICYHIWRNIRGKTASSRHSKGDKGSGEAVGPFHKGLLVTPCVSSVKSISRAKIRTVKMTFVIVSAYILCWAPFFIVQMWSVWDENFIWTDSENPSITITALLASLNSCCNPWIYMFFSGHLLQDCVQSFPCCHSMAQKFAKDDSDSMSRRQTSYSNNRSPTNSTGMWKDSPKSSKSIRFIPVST

IC50 (Rat Hepatic V1 Receptors)	IC50 [1]	SMILES	% Inhibition (Vasopressin V1; [2])	Average Change (Vasopressin V1; [2])	% Inhibition (Vasopressin V1; [3])	Average Change (Vasopressin V1; [3])	% Inhibition (Vasopressin V1; [4])	Average Change (Vasopressin V1; [4])	% Inhibition (Vasopressin V1; [5])	Average Change (Vasopressin V1; [5])	% Inhibition (Vasopressin V1; [6])	Average Change (Vasopressin V1; [6])	% Inhibition (Vasopressin V1; [7])	Average Change (Vasopressin V1; [7])	% Inhibition (Vasopressin V1; [8])	Average Change (Vasopressin V1; [8])	% Inhibition (Vasopressin V1; [9])	Average Change (Vasopressin V1; [9])	% Inhibition (Vasopressin V1; [10])	Average Change (Vasopressin V1; [10])	other results
170 nM	66 nM	Cc1ccccc1C(=O)Nc1ccc(C(=O)N2Cc3cccn3-c3ccccc32)cc1 [Example 14, 2-Methyl-N-[4-(pyrrolo[1,2-a]quinoxalin-5 (4H)-ylcarbonyl)phenyl]benzamide]	25%	26	23%	26.5	39%	21	23%	26.5	6%	32.5	17%	28.5	26%	25.5	20%	38	34%	31.5	% Inhibition (Vasopressin V1; [11]): 16%; Average Change (Vasopressin V1; [11]): 40; % Inhibition (Vasopressin V1; [12]): 17%; Average Change (Vasopressin V1; [12]): 39.5; % Inhibition (Vasopressin V1; [13]): -9%; Average Change (Vasopressin V1; [13]): 52; % Inhibition (Vasopressin V1; [14]): 25%; Average Change (Vasopressin V1; [14]): 35.5; % Inhibition (Vasopressin V1; [15]): 16%; Average Change (Vasopressin V1; [15]): 40; Osmolality (Vasopressin V2; 3 mg/kg orally): 1000 mOsm/kg; Urine Volume (Vasopressin V2; 3 mg/kg orally): 4.5 ml/4 hrs; Osmolality (Vasopressin V2; 10 mg/kg orally): 836 mOsm/kg; Urine Volume (Vasopressin V2; 10 mg/kg orally): 5.2 ml/4 hrs
26 nM	4 nM	Cc1c(F)cccc1C(=O)Nc1ccc(C(=O)N2Cc3cccn3Cc3ccccc32)cc1 [Example 466, N-[4-(5H-pyrrolo[2,1-c][1,4]benzodiazepin-10(11H)-ylcarbonyl)phenyl]-3-fluoro-2-methylbenzamide]	–	–	–	–	–	–	–	–	–	–	–	–	–	–	–	–	–	–	Max. % Inhibition (Vasopressin V1; 30 mg/kg i.v.): 94%; Time (of max. % inhibition) (Vasopressin V1; 30 mg/kg i.v.): 94 min; Osmolality (Vasopressin V2; 10 mg/kg orally): 522 mOsm/kg; Urine Volume (Vasopressin V2; 10 mg/kg orally): 14.1 ml/4 hrs
27 nM	10 nM	Cc1cc(C(=O)N2Cc3cccn3Cc3ccccc32)ccc1NC(=O)c1ccc(Cl)cc1Cl [Example 99, N-[4-(5H-pyrrolo[2,1-c][1,4]-benzodiazepin-10(11H)-yl-carbonyl)-2-methylphenyl]-2,4-dichlorobenzamide]	74%	9.5	29%	25.5	47%	19	76%	8.5	68%	11.5	50%	18	44%	20	64%	13	72%	10	Max. % Inhibition (Vasopressin V1; 10 mg/kg i.v.): 76%; Time (of max. % inhibition) (Vasopressin V1; 10 mg/kg i.v.): 120 min; % Inhibition (Vasopressin V1; [11]): 26%; Average Change (Vasopressin V1; [11]): 26.5; % Inhibition (Vasopressin V1; [12]): 53%; Average Change (Vasopressin V1; [12]): 17; % Inhibition (Vasopressin V1; [13]): 44%; Average Change (Vasopressin V1; [13]): 20; % Inhibition (Vasopressin V1; [14]): 40%; Average Change (Vasopressin V1; [14]): 21.5; % Inhibition (Vasopressin V1; [15]): 38%; Average Change (Vasopressin V1; [15]): 22.5; Osmolality (Vasopressin V2; 30 mg/kg orally): 334 mOsm/kg; Urine Volume (Vasopressin V2; 30 mg/kg orally): 15.2 ml/4 hrs
7 nM	4 nM	O=C(Cc1ccccc1Cl)Nc1ccc(C(=O)N2Cc3cccn3Cc3ccccc32)cc1 [Example 9, 2-Chloro-N-[4-(5H-pyrrolo[2,1-c][1,4]-benzodiazepin-10(11H)-ylcarbonyl)phenyl]benzeneacetamide]	–	–	–	–	–	–	–	–	–	–	–	–	–	–	–	–	–	–	Max. % Inhibition (Vasopressin V1; 10 mg/kg i.v.): 95%; Time (of max. % inhibition) (Vasopressin V1; 10 mg/kg i.v.): 60 min; Osmolality (Vasopressin V2; 10 mg/kg orally): 702 mOsm/kg; Urine Volume (Vasopressin V2; 10 mg/kg orally): 5.8 ml/4 hrs

Further lines, the compound ahead of its results:

SMILES	IC50 (Rat Hepatic V1 Receptors)	IC50 [1]	% Inhibition (Vasopressin V1; [2])	Average Change (Vasopressin V1; [2])	% Inhibition (Vasopressin V1; [3])	Average Change (Vasopressin V1; [3])	% Inhibition (Vasopressin V1; [4])	Average Change (Vasopressin V1; [4])	% Inhibition (Vasopressin V1; [5])	Average Change (Vasopressin V1; [5])	% Inhibition (Vasopressin V1; [6])	Average Change (Vasopressin V1; [6])	% Inhibition (Vasopressin V1; [7])	Average Change (Vasopressin V1; [7])	% Inhibition (Vasopressin V1; [8])	Average Change (Vasopressin V1; [8])	% Inhibition (Vasopressin V1; [9])	Average Change (Vasopressin V1; [9])	% Inhibition (Vasopressin V1; [10])	Average Change (Vasopressin V1; [10])	other results
COc1ccccc1C(=O)Nc1ccc(C(=O)N2Cc3cccn3Cc3ccccc32)cc1 [Example 2, N-[4-(5H-Pyrrolo[2,1-c][1,4]benzodiazepin-10(11H)-ylcarbonyl)phenyl]-2-methoxybenzamide]	31 nM	14 nM	79%	6.5	74%	8	66%	10.5	69%	9.5	55%	14	47%	16.5	44%	17.5	84%	8	74%	13	% Inhibition (Vasopressin V1; [11]): 70%; Average Change (Vasopressin V1; [11]): 15; % Inhibition (Vasopressin V1; [12]): 70%; Average Change (Vasopressin V1; [12]): 15; % Inhibition (Vasopressin V1; [13]): 56%; Average Change (Vasopressin V1; [13]): 22; % Inhibition (Vasopressin V1; [14]): 50%; Average Change (Vasopressin V1; [14]): 25; % Inhibition (Vasopressin V1; [15]): 37%; Average Change (Vasopressin V1; [15]): 31.5; Max. % Inhibition (Vasopressin V1; 30 mg/kg i.v.): 74%; Time (of max. % inhibition) (Vasopressin V1; 30 mg/kg i.v.): 120 min; Osmolality (Vasopressin V2; 10 mg/kg orally): 1015 mOsm/kg; Urine Volume (Vasopressin V2; 10 mg/kg orally): 9.3 ml/4 hrs
O=C(Nc1ccc(C(=O)N2Cc3cccn3Cc3ccccc32)cc1)c1ccccc1F [Example 8, N-[4-(5H-pyrrolo[2,1-c][1,4]benzodiazepin10(11H)-ylcarbonyl)phenyl]-2-fluorobenzamide]	56 nM	35 nM	61%	14.5	61%	14.5	73%	10	69%	11.5	62%	14	59%	15	51%	18	54%	23.5	58%	21.5	% Inhibition (Vasopressin V1; [11]): 66%; Average Change (Vasopressin V1; [11]): 17.5; % Inhibition (Vasopressin V1; [12]): 70%; Average Change (Vasopressin V1; [12]): 15.5; % Inhibition (Vasopressin V1; [13]): 46%; Average Change (Vasopressin V1; [13]): 28; % Inhibition (Vasopressin V1; [14]): 44%; Average Change (Vasopressin V1; [14]): 29; % Inhibition (Vasopressin V1; [15]): 46%; Average Change (Vasopressin V1; [15]): 28; Osmolality (Vasopressin V2; 10 mg/kg orally): 1211 mOsm/kg; Urine Volume (Vasopressin V2; 10 mg/kg orally): 3.4 ml/4 hrs; Osmolality (Vasopressin V2; 30 mg/kg orally): 1010 mOsm/kg; Urine Volume (Vasopressin V2; 30 mg/kg orally): 9.1 ml/4 hrs
O=C(Nc1ccc(C(=O)N2Cc3cccn3Cc3ccccc32)cc1)c1cccc(F)c1F [Example 1]	97 nM	29 nM	88%	4	51%	16.5	37%	21	33%	22.5	13%	29	19%	27	4%	32	85%	8	62%	20	% Inhibition (Vasopressin V1; [11]): 49%; Average Change (Vasopressin V1; [11]): 27; % Inhibition (Vasopressin V1; [12]): 29%; Average Change (Vasopressin V1; [12]): 37.5; % Inhibition (Vasopressin V1; [13]): 9%; Average Change (Vasopressin V1; [13]): 48; % Inhibition (Vasopressin V1; [14]): 25%; Average Change (Vasopressin V1; [14]): 39.5; % Inhibition (Vasopressin V1; [15]): 25%; Average Change (Vasopressin V1; [15]): 39.5; Osmolality (Vasopressin V2; 30 mg/kg orally): 1504 mOsm/kg; Urine Volume (Vasopressin V2; 30 mg/kg orally): 1.1 ml/4 hrs
